Experimental data from PMC7180948, “New Insights into 4-Anilinoquinazolines as Inhibitors of Cardiac Troponin I–Interacting Kinase (TNNi3K)” (Molecules, 2020).

Columns and labels:
Assay in all cases: biochemical
Set-up in all cases: KINOMEscan competition binding panel (Eurofins DiscoverX), single concentration, percent inhibition
Conditions in all cases: read-out: 15 at 1 µM % inhibition
EGFR(G719S) = EGFR(G719S) (Homo sapiens, UniProt P00533, G719S)
In short: (§1)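 Values come from single-concentration (1 µM) profiling in the Eurofins DiscoverX KINOMEscan competition-binding platform, which covers over 400 kinases.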

MST4 = molecular target: T1, MST4 (Homo sapiens, UniProt Q9P289)
T1 construct: gene STK26
In short: as §1

PIK3CA(E545A) = PIK3CA(E545A) (Homo sapiens, UniProt P42336, E545A)
In short: as §1

PHKG1 = PHKG1 (Homo sapiens, UniProt Q16816)
In short: as §1

PIK3CA(E545K) = PIK3CA(E545K) (Homo sapiens, UniProt P42336, E545K)
In short: as §1

PIM1 = PIM1 (Homo sapiens, UniProt P11309)
PIM1, sequence (P11309 whole entry): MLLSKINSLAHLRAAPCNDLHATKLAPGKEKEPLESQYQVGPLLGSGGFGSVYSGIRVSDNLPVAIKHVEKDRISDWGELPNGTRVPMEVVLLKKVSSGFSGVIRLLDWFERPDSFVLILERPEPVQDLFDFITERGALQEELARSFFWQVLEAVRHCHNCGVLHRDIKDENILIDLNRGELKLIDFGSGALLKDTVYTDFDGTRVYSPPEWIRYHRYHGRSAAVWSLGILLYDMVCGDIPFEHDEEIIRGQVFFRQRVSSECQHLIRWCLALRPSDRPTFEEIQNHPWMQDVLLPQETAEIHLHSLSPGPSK
In short: as §1

MKK7 = molecular target: T2, MKK7 (Homo sapiens, UniProt O14733)
T2 construct: gene MAP2K7
T2 sequence (O14733 whole entry): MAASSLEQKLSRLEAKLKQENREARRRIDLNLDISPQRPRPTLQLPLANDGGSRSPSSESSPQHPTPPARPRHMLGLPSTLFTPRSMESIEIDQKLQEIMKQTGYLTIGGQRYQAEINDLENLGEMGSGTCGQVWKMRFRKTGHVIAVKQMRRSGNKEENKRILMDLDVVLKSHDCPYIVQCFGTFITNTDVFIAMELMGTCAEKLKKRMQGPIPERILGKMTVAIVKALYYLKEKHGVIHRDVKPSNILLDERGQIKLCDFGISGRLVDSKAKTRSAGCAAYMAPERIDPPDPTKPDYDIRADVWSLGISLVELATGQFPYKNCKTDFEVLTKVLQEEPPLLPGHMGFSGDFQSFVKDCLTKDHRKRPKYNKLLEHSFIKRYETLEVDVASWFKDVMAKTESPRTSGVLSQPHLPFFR
In short: as §1

NLK = NLK (Homo sapiens, UniProt Q9UBE8)
In short: as §1

ICK = molecular target: T3, ICK (Homo sapiens, UniProt Q9UPZ9)
T3 construct: gene CILK1
In short: as §1

TNNI3K = TNNI3K (Homo sapiens, UniProt Q59H18)
In short: as §1

PIKFYVE = PIKFYVE (Homo sapiens, UniProt Q9Y2I7)
PIKFYVE, sequence (Q9Y2I7 whole entry): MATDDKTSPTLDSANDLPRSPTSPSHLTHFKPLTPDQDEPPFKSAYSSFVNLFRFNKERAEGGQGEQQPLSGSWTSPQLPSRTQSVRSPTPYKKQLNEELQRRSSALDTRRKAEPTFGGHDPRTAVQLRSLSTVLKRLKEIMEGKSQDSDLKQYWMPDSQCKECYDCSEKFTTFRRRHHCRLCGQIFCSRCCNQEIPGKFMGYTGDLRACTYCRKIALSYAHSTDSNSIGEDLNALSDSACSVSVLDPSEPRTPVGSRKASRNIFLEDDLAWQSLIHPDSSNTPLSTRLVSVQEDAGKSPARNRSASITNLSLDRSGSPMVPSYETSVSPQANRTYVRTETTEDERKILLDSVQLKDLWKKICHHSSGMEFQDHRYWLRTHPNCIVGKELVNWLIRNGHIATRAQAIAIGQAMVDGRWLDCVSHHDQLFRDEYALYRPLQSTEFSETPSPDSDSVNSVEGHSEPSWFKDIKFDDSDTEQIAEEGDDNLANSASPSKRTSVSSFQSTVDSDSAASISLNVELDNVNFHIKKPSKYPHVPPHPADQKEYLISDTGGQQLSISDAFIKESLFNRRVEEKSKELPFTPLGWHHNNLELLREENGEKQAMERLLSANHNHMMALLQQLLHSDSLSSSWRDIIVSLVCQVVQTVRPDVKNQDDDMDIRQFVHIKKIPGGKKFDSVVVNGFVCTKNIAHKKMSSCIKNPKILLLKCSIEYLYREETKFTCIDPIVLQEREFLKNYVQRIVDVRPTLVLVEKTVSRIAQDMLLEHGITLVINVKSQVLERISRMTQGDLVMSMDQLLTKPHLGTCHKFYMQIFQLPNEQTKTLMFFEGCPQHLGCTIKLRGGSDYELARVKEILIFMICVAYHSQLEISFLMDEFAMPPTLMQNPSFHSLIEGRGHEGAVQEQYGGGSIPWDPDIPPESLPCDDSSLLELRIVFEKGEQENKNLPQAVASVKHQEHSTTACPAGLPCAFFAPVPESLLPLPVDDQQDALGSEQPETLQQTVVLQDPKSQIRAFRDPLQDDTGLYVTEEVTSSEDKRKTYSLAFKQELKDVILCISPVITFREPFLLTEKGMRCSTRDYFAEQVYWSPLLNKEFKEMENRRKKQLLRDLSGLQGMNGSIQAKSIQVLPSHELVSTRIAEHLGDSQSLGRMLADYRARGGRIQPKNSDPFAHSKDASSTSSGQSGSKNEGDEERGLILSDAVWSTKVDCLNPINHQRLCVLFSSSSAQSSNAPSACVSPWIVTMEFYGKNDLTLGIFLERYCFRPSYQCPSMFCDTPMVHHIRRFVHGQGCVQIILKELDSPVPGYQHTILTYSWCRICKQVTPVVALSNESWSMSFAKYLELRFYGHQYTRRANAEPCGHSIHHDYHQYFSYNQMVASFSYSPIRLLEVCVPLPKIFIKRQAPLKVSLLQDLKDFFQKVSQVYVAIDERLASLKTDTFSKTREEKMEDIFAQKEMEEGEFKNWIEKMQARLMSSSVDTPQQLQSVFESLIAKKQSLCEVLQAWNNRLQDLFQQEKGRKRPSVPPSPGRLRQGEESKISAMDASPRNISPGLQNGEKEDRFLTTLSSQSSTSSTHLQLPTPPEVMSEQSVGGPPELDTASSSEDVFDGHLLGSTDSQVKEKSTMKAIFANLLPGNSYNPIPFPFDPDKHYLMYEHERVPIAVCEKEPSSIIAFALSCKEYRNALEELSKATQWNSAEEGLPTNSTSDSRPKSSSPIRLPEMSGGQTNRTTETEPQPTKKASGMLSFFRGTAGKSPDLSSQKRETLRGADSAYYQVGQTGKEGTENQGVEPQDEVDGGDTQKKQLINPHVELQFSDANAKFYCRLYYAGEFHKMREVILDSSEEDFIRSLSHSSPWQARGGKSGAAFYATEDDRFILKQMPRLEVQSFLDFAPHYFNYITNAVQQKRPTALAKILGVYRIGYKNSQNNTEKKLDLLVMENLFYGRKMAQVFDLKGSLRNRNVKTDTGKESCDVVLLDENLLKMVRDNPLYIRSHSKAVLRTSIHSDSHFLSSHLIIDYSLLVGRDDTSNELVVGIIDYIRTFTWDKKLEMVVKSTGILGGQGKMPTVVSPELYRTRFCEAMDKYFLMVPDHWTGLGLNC
In short: as §1

BLK = BLK (Homo sapiens, UniProt P51451)
In short: as §1

MKNK2 = MKNK2 (Homo sapiens, UniProt Q9HBH9)
In short: as §1

BMX = BMX (Homo sapiens, UniProt P51813)
In short: as §1

EGFR(L858R,T790M) = EGFR(L858R,T790M) (Homo sapiens, UniProt P00533, L858R/T790M)
In short: as §1

MAST1 = MAST1 (Homo sapiens, UniProt Q9Y2H9)
MAST1, sequence (Q9Y2H9 whole entry): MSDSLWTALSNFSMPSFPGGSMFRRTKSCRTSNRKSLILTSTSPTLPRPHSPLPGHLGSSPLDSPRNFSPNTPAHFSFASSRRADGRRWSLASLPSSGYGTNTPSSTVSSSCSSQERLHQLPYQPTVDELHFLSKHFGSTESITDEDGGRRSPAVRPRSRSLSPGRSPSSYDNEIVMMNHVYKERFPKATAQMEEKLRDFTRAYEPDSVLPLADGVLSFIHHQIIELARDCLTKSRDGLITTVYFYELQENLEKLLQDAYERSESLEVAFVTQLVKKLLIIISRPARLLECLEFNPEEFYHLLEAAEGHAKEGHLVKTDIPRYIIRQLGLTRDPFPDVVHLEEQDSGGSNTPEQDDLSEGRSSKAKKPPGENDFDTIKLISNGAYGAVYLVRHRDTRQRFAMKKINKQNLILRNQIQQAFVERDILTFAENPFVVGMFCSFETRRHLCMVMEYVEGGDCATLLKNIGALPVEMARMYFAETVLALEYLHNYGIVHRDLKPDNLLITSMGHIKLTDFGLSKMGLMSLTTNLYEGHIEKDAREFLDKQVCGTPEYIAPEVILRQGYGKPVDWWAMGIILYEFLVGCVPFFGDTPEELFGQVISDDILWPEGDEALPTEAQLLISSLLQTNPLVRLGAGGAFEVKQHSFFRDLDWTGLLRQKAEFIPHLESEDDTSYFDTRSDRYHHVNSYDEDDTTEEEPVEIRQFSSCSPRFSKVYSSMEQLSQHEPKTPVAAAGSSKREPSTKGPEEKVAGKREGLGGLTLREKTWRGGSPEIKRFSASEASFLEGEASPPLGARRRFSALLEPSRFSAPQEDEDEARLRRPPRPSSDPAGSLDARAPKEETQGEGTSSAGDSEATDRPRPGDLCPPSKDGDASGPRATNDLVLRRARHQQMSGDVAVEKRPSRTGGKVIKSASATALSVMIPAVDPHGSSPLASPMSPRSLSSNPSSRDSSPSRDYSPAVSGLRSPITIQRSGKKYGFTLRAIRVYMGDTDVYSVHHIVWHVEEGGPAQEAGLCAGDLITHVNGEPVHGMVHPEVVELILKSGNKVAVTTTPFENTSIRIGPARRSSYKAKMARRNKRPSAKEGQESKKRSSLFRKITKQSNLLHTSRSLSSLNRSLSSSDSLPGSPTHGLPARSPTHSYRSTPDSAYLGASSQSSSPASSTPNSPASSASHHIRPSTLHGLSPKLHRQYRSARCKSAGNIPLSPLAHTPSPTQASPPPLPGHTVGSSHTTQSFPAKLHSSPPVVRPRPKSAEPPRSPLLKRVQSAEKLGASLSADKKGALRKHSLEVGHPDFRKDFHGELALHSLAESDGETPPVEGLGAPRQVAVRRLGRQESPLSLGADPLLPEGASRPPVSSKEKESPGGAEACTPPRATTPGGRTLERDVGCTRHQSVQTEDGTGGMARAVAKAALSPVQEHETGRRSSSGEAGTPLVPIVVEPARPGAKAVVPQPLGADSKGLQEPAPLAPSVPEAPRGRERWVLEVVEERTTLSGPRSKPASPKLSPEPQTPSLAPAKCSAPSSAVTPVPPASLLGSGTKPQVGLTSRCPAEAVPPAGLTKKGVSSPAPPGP
In short: as §1

CSNK1G1 = CSNK1G1 (Homo sapiens, UniProt Q9HCP0)
In short: as §1

[1] = molecular target: EGFR(L747-S752del, P753S) (Homo sapiens, UniProt P00533, DEL747-752/P753S)
In short: as §1

BUB1 = BUB1 (Homo sapiens, UniProt O43683)
In short: as §1

SRPK1 = SRPK1 (Homo sapiens, UniProt Q96SB4)
SRPK1, sequence (Q96SB4 whole entry): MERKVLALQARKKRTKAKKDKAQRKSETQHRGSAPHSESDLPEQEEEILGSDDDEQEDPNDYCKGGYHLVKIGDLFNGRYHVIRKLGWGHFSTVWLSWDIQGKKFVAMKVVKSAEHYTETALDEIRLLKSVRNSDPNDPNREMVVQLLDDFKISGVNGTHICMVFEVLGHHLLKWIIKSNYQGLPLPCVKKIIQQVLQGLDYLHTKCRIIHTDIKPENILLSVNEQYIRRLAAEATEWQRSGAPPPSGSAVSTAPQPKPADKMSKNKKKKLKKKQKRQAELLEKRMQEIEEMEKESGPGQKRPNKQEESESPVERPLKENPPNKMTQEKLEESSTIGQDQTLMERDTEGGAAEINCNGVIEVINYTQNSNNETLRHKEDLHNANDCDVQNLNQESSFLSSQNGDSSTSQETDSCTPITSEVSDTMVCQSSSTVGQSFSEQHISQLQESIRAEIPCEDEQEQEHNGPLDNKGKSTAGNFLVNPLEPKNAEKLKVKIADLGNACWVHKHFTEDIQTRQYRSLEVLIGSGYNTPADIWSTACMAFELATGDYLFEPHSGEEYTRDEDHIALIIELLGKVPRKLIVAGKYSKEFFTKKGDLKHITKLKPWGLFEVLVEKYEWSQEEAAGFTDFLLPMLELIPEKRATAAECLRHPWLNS
In short: as §1

RIPK5 = molecular target: T4, RIPK5 (Homo sapiens, UniProt Q6XUX3)
T4 construct: gene DSTYK
In short: as §1

p38-gamma = molecular target: T5, p38-gamma (Homo sapiens, UniProt P53778)
T5 construct: gene MAPK12
In short: as §1

PLK3 = PLK3 (Homo sapiens, UniProt Q9H4B4)
In short: as §1

FGFR1 = FGFR1 (Homo sapiens, UniProt P11362)
In short: as §1

With CNS(=O)(=O)c1ccc(N(C)C)c(Nc2nc(C)nc3cc(OC)c(OC)cc23)c1 [compound 15, 3-((6,7-dimethoxy-2-methylquinazolin-4-yl)amino)-4-(dimethylamino)-N-methylbenzenesulfonamide] the inhibition at 1 µM (EGFR(G719S)) was 0%, the inhibition at 1 µM (MST4) was 13% and the inhibition at 1 µM (PIK3CA(E545A)) was 1%. For the same compound, the inhibition at 1 µM (PHKG1) was 0%, the inhibition at 1 µM (PIK3CA(E545K)) was 21% and the inhibition at 1 µM (PIM1) was 2%. The inhibition at 1 µM (MKK7) was 30%, the inhibition at 1 µM (NLK) was 0% and the inhibition at 1 µM (ICK) was 12%. The inhibition at 1 µM (TNNI3K) was 7%, the inhibition at 1 µM (PIKFYVE) was 13% and the inhibition at 1 µM (BLK) was 0%. For the same compound, the inhibition at 1 µM (MKNK2) was 38%, the inhibition at 1 µM (BMX) was 10% and the inhibition at 1 µM (EGFR(L858R,T790M)) was 16%. It also gave an inhibition at 1 µM (MAST1) of 14%, an inhibition at 1 µM (CSNK1G1) of 0% and an inhibition at 1 µM [1] of 11%. The inhibition at 1 µM (BUB1) was 7%, the inhibition at 1 µM (SRPK1) was 0% and the inhibition at 1 µM (RIPK5) was 12%. For the same compound, the inhibition at 1 µM (p38-gamma) was 17%, the inhibition at 1 µM (PLK3) was 8% and the inhibition at 1 µM (FGFR1) was 10%.
